PubChem BioAssay (NCI)
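Assay format: 96-well plates, 48-hour exposure. GI50 marks 50% less growth. TGI is the concentration that stops growth completely.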 Where a SMILES comes first, the peptide text is derived from it. The star is where a group is joined. Cbz = O=C(OCc1ccccc1)*; Boc = CC(C)(C)OC(=O)*; OBn = c1ccc(CO*)cc1

Experiments:
Assay in all cases: inhibition of tumour cell growth, NCI panel, 48 h
OVCAR-8 ovarian = tested on: OVCAR-8 ovarian
NCI-H226 lung = tested on: NCI-H226 lung
K-562 leukemia = tested on: K-562 leukemia
BT-549 breast = tested on: BT-549 breast
HCC-2998 colon = tested on: HCC-2998 colon
PC-3 prostate = tested on: PC-3 prostate
RXF 393 renal = tested on: RXF 393 renal
OVCAR-3 ovarian = tested on: OVCAR-3 ovarian
SNB-19 CNS = tested on: SNB-19 CNS
SK-MEL-28 melanoma = tested on: SK-MEL-28 melanoma

Structure (SMILES)	TGI (OVCAR-8 ovarian) [µM]	TGI (NCI-H226 lung) [µM]	TGI (K-562 leukemia) [µM]	TGI (BT-549 breast) [µM]	TGI (HCC-2998 colon) [µM]	TGI (PC-3 prostate) [µM]	TGI (RXF 393 renal) [µM]	TGI (OVCAR-3 ovarian) [µM]	TGI (SNB-19 CNS) [µM]	TGI (SK-MEL-28 melanoma) [µM]	GI50 (OVCAR-8 ovarian) [µM]	GI50 (NCI-H226 lung) [µM]	GI50 (HCC-2998 colon) [µM]	GI50 (RXF 393 renal) [µM]	GI50 (SK-MEL-28 melanoma) [µM]	GI50 (OVCAR-3 ovarian) [µM]	GI50 (SNB-19 CNS) [µM]	GI50 (K-562 leukemia) [µM]	GI50 (BT-549 breast) [µM]
COc1ccc(N=N/C(=N/NC(=O)c2ccccc2)c2ccc(N(CCC#N)CCC#N)cc2C)cc1	> 100	> 100	> 100	> 100	> 100	> 100	> 100	> 100	> 100	–	–	–	–	–	–	–	–	–	–
Oc1ccc(SCc2cc(O)c(O)c(O)c2)cc1	49.6	52.1	> 100	85.9	–	> 100	> 100	> 100	> 100	> 100	–	–	–	–	–	–	–	–	–
CN(C)CCSC(=Nc1ccccc1)N1CCCCC1	39.7	24.5	> 100	–	–	–	34.7	29.8	> 100	28	–	–	–	–	–	–	–	–	–
O=C1C(Br)=CC2(C=C1Br)CCNC1=C2C(=O)c2cccnc2C1=O	32.4	36.9	6.84	–	31.9	39.7	21.3	17.9	20	29.3	–	–	–	–	–	–	–	–	–
c1ccc2c(c1)nc(NC1CCCC1)c1[nH]c(C3CCCC3)nc12	24.3	45.1	41.4	–	17.6	–	30.9	27.9	> 100	28.3	–	–	–	–	–	–	–	–	–
COC(=O)C(Cc1ccc(O)cc1)NC(=O)C(CC(=O)OCc1ccccc1)NC(=O)OCc1ccccc1 (stereo not drawn) (Cbz-Asp(OBn)-Tyr-OMe; configuration not given here)	35.6	43.2	> 100	37.4	31.5	31.6	29.5	–	34.1	31.3	–	–	–	–	–	–	–	–	–
O=C(N/N=C/c1cc(Cl)cc(Cl)c1[O-])c1ccccc1O.O=C(N/N=C/c1cc(Cl)cc(Cl)c1[O-])c1ccccc1O.[Ni+2]	1.41	0.923	17.4	–	1.56	–	2.1	0.835	8.85	2.09	–	–	–	–	–	–	–	–	–
OC1(c2cc3ccccc3s2)CCCCC1	> 100	> 100	> 100	> 100	> 100	–	> 100	> 100	> 100	> 100	–	–	–	–	–	–	–	–	–
[N-]=[N+]=NCc1cccc(Nc2cc(=O)[nH]c(=O)[nH]2)c1	> 100	> 100	> 100	> 100	> 100	–	> 100	> 100	> 100	> 100	–	–	–	–	–	–	–	–	–
CC(=O)OC(OC(C)=O)n1cc(C=O)c2ccccc21	> 100	> 100	> 100	–	> 100	> 100	–	> 100	> 100	> 100	–	–	–	–	–	–	–	–	–
N#C[S-].[Nd+3].c1ccc(-c2ccccn2)nc1.c1ccc(-c2ccccn2)nc1.c1ccc(-c2ccccn2)nc1	> 100	7.52	–	–	> 100	–	24.8	> 100	> 100	> 100	4.8	2.89	7.87	3.89	13.7	37.6	10.7	–	–
COc1cccc(Cc2c3cc(OC)ccc3cc[n+]2C)c1	> 100	–	> 100	–	> 100	–	–	> 100	> 100	> 100	–	–	–	–	–	–	–	–	–
O=C1Nc2cc([N+](=O)[O-])ccc2NC1/C(=N\Nc1ccccc1)C(O)c1cccc([N+](=O)[O-])c1 (stereo not drawn)	> 100	> 100	> 100	–	> 100	–	> 100	> 100	> 100	> 100	–	–	–	–	–	–	–	–	–
C/C(=N\NC(N)=S)C(CN(CC(C)C)CC(C)C)C(=O)Nc1ccc(C)cc1C (stereo not drawn)	> 100	> 100	> 100	–	> 100	–	> 100	> 100	> 100	> 100	–	–	–	–	–	–	–	–	–
Cc1cc(S(=O)(=O)O)c(NC(=O)C(=O)C2C=CCS2(=O)=O)cc1Cl (stereo not drawn)	> 100	> 100	> 100	–	> 100	–	> 100	> 100	> 100	> 100	–	–	–	–	–	–	–	–	–
CC(NC(=O)C(NC(=O)OC(C)(C)C)C(C)C)C(=O)N1CCCC1C(=O)NCC(=O)NC(C(=O)NCC(=O)OCc1ccccc1)C(C)C (stereo not drawn) (Boc-VAPGVG-OBn; configuration not given here)	> 100	–	> 100	–	> 100	> 100	–	> 100	> 100	> 100	–	–	–	–	–	–	–	–	–
Cc1cccc(C2=NC(C)(C)C(C)(C)N=C2c2cccc(C)n2)n1	> 100	> 100	> 100	–	> 100	–	> 100	> 100	> 100	> 100	–	–	–	–	–	–	–	–	–
Cc1nc2ccc(S(=O)(=O)O)cc2c(=O)n1-c1ccc(C(=O)NN2C(=O)C(Cl)C2c2ccccc2O)cc1 (stereo not drawn)	> 100	> 100	> 100	> 100	–	> 100	> 100	> 100	> 100	> 100	–	–	–	–	–	–	–	–	–
O=C(NC1CCN(Cc2ccccc2)CC1)c1cc2nc(-c3ccc(Cl)s3)cc(C(F)(F)F)n2n1	–	> 100	> 100	> 100	–	–	> 100	> 100	> 100	–	–	> 100	–	3.23	–	42.4	> 100	3.29	> 100
O=c1c(C=Nc2ccc([N+](=O)[O-])cc2)c(O)n(-c2ccccc2)c(=O)n1-c1ccccc1	> 100	> 100	> 100	> 100	> 100	> 100	> 100	> 100	> 100	–	–	–	–	–	–	–	–	–	–
CCCCOP1(=O)C=C(C)C(=C(Cl)Cl)C(C)=C1 (stereo not drawn)	> 54.2	13	> 100	–	52.3	–	24.4	39.1	> 77.9	23.9	–	–	–	–	–	–	–	–	–
c1ccc2c(c1)CCc1cc3cc4c(nc3nc1-2)-c1ccccc1CC4	> 100	> 100	> 100	–	> 100	–	> 100	> 100	> 100	> 100	–	–	–	–	–	–	–	–	–

Structure (SMILES)	TGI (OVCAR-8 ovarian) [µM]	TGI (NCI-H226 lung) [µM]	TGI (K-562 leukemia) [µM]	TGI (BT-549 breast) [µM]	TGI (HCC-2998 colon) [µM]	TGI (PC-3 prostate) [µM]	TGI (RXF 393 renal) [µM]	TGI (OVCAR-3 ovarian) [µM]	TGI (SNB-19 CNS) [µM]	TGI (SK-MEL-28 melanoma) [µM]	GI50 (OVCAR-8 ovarian) [µM]	GI50 (NCI-H226 lung) [µM]	GI50 (HCC-2998 colon) [µM]	GI50 (RXF 393 renal) [µM]	GI50 (SK-MEL-28 melanoma) [µM]	GI50 (OVCAR-3 ovarian) [µM]	GI50 (SNB-19 CNS) [µM]	GI50 (K-562 leukemia) [µM]	GI50 (BT-549 breast) [µM]
Cc1ccc(N2CCc3c(C)c(C#N)c4nc5ccccc5n4c32)cc1	> 100	> 100	–	> 100	> 100	> 100	> 100	> 100	> 100	> 100	–	–	–	–	–	–	–	–	–
COC(=O)/C=C1\CCC(C)(C(=O)NS(=O)(=O)c2ccc(C)cc2)C1(C)C (stereo not drawn)	> 100	> 100	> 100	> 100	> 100	> 100	> 100	> 100	> 100	–	–	–	–	–	–	–	–	–	–
C1CCC(OC2CSC2)OC1 (stereo not drawn)	> 100	> 100	> 100	–	> 100	> 100	> 100	> 100	> 100	> 100	–	–	–	–	–	–	–	–	–
O=S1(=O)c2ccccc2C(=NO)c2ccccc21	> 100	> 100	> 100	> 100	> 100	> 100	> 100	> 100	–	> 100	–	–	–	–	–	–	–	–	–
COc1cccc(/C=N/[N-]C(N)=O)c1[O-].[Ni+2].[OH3+].c1cnc2c(c1)ccc1cccnc12	> 100	> 100	> 100	–	–	–	–	> 100	> 100	> 100	–	–	–	–	–	–	–	–	–
C=C(C)C(=O)[C@@]12C(=O)[C@@H](C)CC[C@H]1[C@H](C)C[C@@H]2C=C(C)C	> 100	> 100	> 100	–	28	59.4	–	38.5	32.5	> 100	–	–	–	–	–	–	–	–	–
C=C1C(=O)OCC2C(C(=O)O)=CC3C(C)C(C)=CC123 (stereo not drawn)	73.5	52.1	72.4	–	29	–	17.7	31.3	40.2	7.64	–	–	–	–	–	–	–	–	–
CC(CO)C1C[C@H](O)[C@@]2(C)CC(=O)C=C(CO)[C@@H]2C1 (stereo partly drawn)	> 100	> 100	–	> 100	> 100	–	> 100	> 100	> 100	> 100	–	–	–	–	–	–	–	–	–
CCCCCCCCCCCCCCCCCCNc1ccn(C2OC(COP(=O)(O)OCC3OC(n4cc(C)c(=O)[nH]c4=O)CC3N=[N+]=[N-])C(O)C2O)c(=O)n1 (stereo not drawn)	48.8	43.7	50.3	49.2	29.9	22.5	–	> 100	59.7	36.8	–	–	–	–	–	–	–	–	–
O=C(CCCCCCCCC(=O)N1C(=O)CC(=O)N(c2cccc(Cl)c2)C1=S)N1C(=O)CC(=O)N(c2cccc(Cl)c2)C1=S	> 100	–	–	> 100	> 100	91.2	> 100	65	> 100	–	–	–	–	–	–	–	–	–	–
O=[Se](=O)c1ccccc1.O=[Se](=O)c1ccccc1.[Cu]	30.2	39.6	47.4	–	32.9	–	29.2	32.7	31.3	30.7	15.9	21.7	16.6	15.3	16.6	13.7	17.4	13.4	–
NCCNc1cccc2ccccc12	> 100	> 100	–	–	> 100	–	> 100	> 100	> 100	–	–	–	–	–	–	–	–	–	–
CSC1=C(C#N)C(=O)N(c2ccc(C)cc2)C(=S)C1C#N (stereo not drawn)	> 100	> 100	> 100	> 100	> 100	> 100	> 100	–	> 100	> 100	–	–	–	–	–	–	–	–	–
CCOC(=O)CNC(=O)C(C)NC(=O)C(NC(=O)CC(c1ncc[nH]1)c1ncc[nH]1)C(C)CC (stereo not drawn)	> 100	–	> 100	–	> 100	–	–	> 100	> 100	> 100	–	–	–	–	–	–	–	–	–
COC(=O)/C=C/c1cc(O)c2c(c1)[C@H](C(=O)OC)[C@@H](c1ccc(O)c(O)c1)O2	4.37	> 22.7	–	30.3	54.6	> 100	–	–	–	> 71	–	–	–	–	–	–	–	–	–
CC(=O)O[C@]12CCCC1C1(O)C(O)CCCC12 (stereo partly drawn)	> 100	> 100	> 100	–	–	–	> 100	–	> 100	> 100	–	–	–	–	–	–	–	–	–
O=C1Cc2c([nH]c3ccc(Br)cc23)-c2ccccc2N1	> 100	> 100	> 100	–	> 100	> 100	> 100	> 100	> 100	> 100	–	–	–	–	–	–	–	–	–
Cc1cn(CC2=NCC(C)(C)N2)c(=O)[nH]c1=O	> 100	> 100	> 100	> 100	> 100	> 100	> 100	–	> 100	> 100	–	–	–	–	–	–	–	–	–
O=[N+]([O-])c1ccc(N=Nc2c(O)c(S(=O)(=O)O)cc3cc(S(=O)(=O)O)ccc23)cc1	> 100	> 100	> 100	> 100	> 100	> 100	–	> 100	> 100	> 100	–	–	–	–	–	–	–	–	–
CNC(=O)c1cc(NC(=O)N(CCC#N)CCN(C(=O)N[C@@H](Cc2ccccc2)C(=O)N[C@@H](CC(C)C)C(=O)NC)c2ccccc2)ccc1OC	> 100	> 100	–	> 100	–	> 100	99.4	> 100	> 100	> 61.9	–	–	–	–	–	–	–	–	–
O=C(c1ccccc1)c1ccc2nc(-c3c(Cl)c(Cl)c(Cl)c(Cl)c3C(=O)N/N=C/c3ccccc3)[nH]c2c1	> 100	79.8	> 100	> 100	–	> 100	73.2	54.3	> 100	> 100	–	–	–	–	–	–	–	–	–
CCCCc1ccc(Nc2ncc3[nH]cnc3n2)cc1	36.3	45.4	> 100	52.8	37.8	–	49.7	28.9	44.4	–	–	–	–	–	–	–	–	–	–
